System: bioburden of powdered lactose
Test: Bioburden testing (US Pharmacopeia 61, colony count) of lactose powder after ozone sterilization in the reactor chamber
Type: cell-based
Settings: 50 g lactose powder, 5 hrs, 35° C., 10 rpm, 0 ppm control 1800 CFU/ml
Protocol: (§1) Briefly, 50 grams of lactose powder was loaded into the reactor chamber. The chamber was evacuated to reach a pressure of 0.008 Torr and then 0.01 Torr. Then the chamber was filled with ozone at 25 sccm to 2 ppm, 10 ppm or 20 ppm. The ozone was kept in the chamber for 5 hrs. The reaction was held at 35° C. and the reactor chamber was rotated at 10 rpm. At the end of the 5 hour incubation time, the chamber was evacuated to reach a pressure of 0.01 Torr and purged with nitrogen. The lactose was then tested using US Pharmacopeia 61 testing. Briefly, the samples were incubated in petri-dishes and counted for colony forming units (cfu).
as §1, with “ppm. Water vapor was also added at an ozone/water ratio of 1:10.” for “ppm.”, “test” for “tested”, “testing.” for “testing. Briefly, the samples were incubated in petri-dishes and counted for colony forming units (cfu).”

## O=[O+][O-] [Dry ozone, ozone]
Ozone concentration 2 ppm
  Bioburden: 500 CFU/ml
Ozone concentration 10 ppm
  Bioburden: 50 CFU/ml
Ozone concentration 20 ppm
  Bioburden: <1 CFU/ml

From patent publication US20250352679A1, “IN-SITU STE[…] VAPOR PHASE DEPOSITION” (Applied Materials, Inc., priority 2024, published 2025)
